What was measured:
[1] = system: H1299 cells; assay: MTT assay, H1299; format: cell-based, human; details: H1299 (high EGFR-expressing), 10 μM
Description: (§1) The cell lines MCF-7 and A431 were cultured in Dulbecco’s Modified Eagle’s Medium (DMEM, Gibco, USA), while HL-60, H1299, and A549 cells were maintained in RPMI-1640 medium (Gibco, USA). Both mediums were enriched with 10% fetal bovine serum and 1% penicillin/streptomycin. […] All cell cultures were incubated at 37°C in an atmosphere containing 5% CO2.
(§2) Cells in the exponential growth phase were seeded into 96-well plates and allowed to adhere overnight. Subsequently, they were treated in triplicate with various concentrations of the compounds (0, 1.56, 3.13, 6.25, 12.5, 25, 50, 100 µM), […]. After 24 h, 20 µL of Methyl-thiazolyldiphenyl-tetrazolium bromide (MTT, 5 mg/mL, Thermo Fisher Scientific) was added to each well and incubated for a minimum of 4 h. Following the incubation, the medium containing the compounds and MTT was removed from each well, and 200 µL of dimethyl sulfoxide (DMSO) was added. The plates were then shaken for 10 min at 37°C to dissolve the formazan crystals. The absorbance was measured using a microplate reader (BioTek Synergy 4) at a wavelength of 490 nm.

[2] = molecular target: FAK (Homo sapiens, UniProt Q05397); assay: Kinase profiling; format: biochemical; details: one of the other seven tyrosine kinases
Description: (§3) The experiments were conducted in accordance with the manufacturer’s guidelines (Promega). The procedure began with a kinase reaction, where 5 μL of 1× kinase buffer was utilized, and the mixture was incubated at room temperature for 60 min. This step was followed by the addition of 5 μL of ADP-Glo™ reagent to terminate the kinase reaction and to deplete any remaining ATP, with a subsequent incubation period of 40 min at room temperature. Next, 10 μL of kinase detection reagent was added to convert ADP back into ATP, and luciferase along with luciferin was introduced to facilitate ATP detection. This mixture was then incubated at room temperature for an additional 30 min. Detection was carried out using a BioTek Synergy4 instrument, and data analysis, including curve fitting and presentation, was performed using GraphPad Prism version 5.0.

[3] = molecular target: FLT1 (Homo sapiens, UniProt P17948); assay: Kinase profiling; format: biochemical; details: one of the other seven tyrosine kinases
Description: as §3

[4] = molecular target: FGFR3 (Homo sapiens, UniProt P22607); assay: Kinase profiling; format: biochemical; details: one of the other seven tyrosine kinases
Chain of FGFR3 (P22607 23-806): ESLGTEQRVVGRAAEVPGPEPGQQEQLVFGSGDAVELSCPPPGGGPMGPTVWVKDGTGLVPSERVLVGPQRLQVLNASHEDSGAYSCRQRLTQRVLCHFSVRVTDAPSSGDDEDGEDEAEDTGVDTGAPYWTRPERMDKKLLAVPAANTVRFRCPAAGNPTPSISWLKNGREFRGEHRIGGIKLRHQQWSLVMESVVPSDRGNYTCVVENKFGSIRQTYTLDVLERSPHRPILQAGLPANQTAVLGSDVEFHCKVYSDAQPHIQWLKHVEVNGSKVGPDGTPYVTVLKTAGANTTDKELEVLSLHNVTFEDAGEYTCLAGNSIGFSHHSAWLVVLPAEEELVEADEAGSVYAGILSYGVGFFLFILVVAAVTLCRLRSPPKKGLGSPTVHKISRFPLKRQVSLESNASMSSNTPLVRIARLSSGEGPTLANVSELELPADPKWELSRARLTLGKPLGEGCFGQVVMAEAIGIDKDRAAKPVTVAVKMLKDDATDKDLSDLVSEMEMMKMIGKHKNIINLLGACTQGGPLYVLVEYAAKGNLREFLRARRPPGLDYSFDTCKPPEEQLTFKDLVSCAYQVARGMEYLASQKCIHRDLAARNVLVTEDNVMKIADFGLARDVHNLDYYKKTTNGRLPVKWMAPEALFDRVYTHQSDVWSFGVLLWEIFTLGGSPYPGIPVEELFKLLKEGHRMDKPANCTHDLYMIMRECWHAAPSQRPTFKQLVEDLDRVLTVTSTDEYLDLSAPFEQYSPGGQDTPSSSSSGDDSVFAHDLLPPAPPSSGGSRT
Description: as §3

[5] = molecular target: FGFR1 (Homo sapiens, UniProt P11362); assay: Kinase profiling; format: biochemical; details: one of the other seven tyrosine kinases
Chain of FGFR1 (P11362 22-822): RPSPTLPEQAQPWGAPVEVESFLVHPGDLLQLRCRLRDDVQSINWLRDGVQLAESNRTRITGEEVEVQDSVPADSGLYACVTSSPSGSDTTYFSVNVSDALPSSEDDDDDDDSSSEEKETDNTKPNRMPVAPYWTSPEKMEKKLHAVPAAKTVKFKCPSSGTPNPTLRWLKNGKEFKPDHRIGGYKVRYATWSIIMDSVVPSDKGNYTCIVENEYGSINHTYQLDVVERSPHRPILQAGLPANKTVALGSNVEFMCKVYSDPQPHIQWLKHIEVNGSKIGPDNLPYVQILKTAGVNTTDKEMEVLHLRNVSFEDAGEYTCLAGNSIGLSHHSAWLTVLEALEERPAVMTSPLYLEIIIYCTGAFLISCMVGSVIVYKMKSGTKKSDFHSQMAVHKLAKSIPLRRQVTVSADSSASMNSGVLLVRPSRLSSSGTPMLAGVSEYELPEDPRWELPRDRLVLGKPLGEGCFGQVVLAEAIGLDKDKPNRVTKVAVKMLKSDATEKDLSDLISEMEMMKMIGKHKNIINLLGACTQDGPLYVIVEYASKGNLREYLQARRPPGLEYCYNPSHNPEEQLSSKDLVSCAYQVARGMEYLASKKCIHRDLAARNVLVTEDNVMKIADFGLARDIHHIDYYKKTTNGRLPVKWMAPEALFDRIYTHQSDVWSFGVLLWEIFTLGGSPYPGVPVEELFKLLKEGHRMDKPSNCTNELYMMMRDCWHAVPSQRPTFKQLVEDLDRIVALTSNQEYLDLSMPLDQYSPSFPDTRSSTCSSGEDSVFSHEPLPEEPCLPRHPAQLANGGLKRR
Description: as §3

[6] = molecular target: ECK (Homo sapiens, UniProt P29317); assay: Kinase profiling; format: biochemical; details: one of the other seven tyrosine kinases
Chain of ECK (P29317 24-976): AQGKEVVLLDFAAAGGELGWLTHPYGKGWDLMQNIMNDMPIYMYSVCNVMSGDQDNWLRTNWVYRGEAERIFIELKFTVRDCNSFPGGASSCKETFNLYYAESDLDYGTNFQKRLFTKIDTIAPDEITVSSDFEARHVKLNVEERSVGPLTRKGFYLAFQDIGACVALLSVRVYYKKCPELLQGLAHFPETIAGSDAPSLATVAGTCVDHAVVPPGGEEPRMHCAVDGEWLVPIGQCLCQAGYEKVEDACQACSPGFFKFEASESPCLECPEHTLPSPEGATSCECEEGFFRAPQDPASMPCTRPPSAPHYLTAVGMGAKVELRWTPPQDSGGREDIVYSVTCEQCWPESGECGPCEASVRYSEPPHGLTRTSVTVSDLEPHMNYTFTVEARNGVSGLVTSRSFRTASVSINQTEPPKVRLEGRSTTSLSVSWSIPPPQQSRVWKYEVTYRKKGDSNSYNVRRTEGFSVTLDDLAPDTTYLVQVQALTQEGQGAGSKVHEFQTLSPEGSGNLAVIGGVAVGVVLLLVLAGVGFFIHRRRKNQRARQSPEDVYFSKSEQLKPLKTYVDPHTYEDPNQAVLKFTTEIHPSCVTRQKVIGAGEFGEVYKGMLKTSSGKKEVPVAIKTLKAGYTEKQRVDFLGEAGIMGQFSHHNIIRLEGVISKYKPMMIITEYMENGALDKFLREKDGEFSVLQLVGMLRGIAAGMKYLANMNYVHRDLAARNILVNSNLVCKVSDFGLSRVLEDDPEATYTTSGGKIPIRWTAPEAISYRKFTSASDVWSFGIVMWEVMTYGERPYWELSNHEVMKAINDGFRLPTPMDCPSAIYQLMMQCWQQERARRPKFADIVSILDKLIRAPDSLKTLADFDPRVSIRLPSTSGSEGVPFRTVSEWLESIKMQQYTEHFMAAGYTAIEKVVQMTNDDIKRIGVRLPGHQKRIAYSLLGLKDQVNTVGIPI
Description: as §3

[7] = molecular target: ABL (Homo sapiens, UniProt P00519); assay: Kinase profiling; format: biochemical; details: one of the other seven tyrosine kinases
Chain of ABL (P00519 whole entry): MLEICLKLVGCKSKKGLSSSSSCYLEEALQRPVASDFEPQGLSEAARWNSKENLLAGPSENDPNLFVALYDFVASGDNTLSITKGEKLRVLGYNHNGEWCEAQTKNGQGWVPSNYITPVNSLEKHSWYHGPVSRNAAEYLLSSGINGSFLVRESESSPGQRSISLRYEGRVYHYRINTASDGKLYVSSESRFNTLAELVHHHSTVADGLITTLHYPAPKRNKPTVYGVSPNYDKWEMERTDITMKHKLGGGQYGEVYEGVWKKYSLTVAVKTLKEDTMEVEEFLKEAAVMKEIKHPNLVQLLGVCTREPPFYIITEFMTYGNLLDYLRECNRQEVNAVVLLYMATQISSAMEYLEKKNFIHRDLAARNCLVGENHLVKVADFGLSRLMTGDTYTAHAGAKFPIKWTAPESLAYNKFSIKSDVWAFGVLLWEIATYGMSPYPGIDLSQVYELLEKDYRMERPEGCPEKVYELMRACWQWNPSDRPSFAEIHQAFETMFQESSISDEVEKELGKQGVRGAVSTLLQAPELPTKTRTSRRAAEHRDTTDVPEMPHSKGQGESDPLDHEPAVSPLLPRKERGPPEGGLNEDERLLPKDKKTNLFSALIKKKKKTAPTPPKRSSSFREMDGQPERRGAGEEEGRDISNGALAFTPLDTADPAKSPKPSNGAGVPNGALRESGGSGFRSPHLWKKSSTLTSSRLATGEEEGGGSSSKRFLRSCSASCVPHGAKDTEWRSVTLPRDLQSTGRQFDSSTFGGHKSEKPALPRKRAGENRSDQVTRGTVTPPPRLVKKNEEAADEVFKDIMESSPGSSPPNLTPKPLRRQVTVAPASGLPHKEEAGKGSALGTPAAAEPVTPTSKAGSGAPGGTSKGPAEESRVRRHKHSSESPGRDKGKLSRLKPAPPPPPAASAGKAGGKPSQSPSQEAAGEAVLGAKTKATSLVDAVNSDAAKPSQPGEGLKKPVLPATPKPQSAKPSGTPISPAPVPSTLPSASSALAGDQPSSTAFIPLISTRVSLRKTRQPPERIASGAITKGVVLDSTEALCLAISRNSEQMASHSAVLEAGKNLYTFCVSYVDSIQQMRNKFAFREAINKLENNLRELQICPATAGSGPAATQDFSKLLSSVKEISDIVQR
Description: as §3

[8] = molecular target: T1, EGFR kinase domain (Homo sapiens, UniProt P00533); assay: Differential Scanning Fluorimetry (DSF); format: binding; details: 10 µM; 52.6°C at 0 µM
T1 construct: the intracellular tyrosine kinase (TK) domain of EGFR, tagged with GST; purchased Sinobiological, China
T1 sequence (P00533 712-979 limits assumed): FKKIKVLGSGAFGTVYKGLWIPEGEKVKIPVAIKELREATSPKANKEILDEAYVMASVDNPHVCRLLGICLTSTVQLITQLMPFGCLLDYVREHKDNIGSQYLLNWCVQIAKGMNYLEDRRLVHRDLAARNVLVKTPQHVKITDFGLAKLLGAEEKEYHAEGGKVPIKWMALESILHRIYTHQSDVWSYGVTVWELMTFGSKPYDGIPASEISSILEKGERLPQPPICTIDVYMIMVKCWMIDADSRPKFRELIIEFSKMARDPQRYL
Description: In the Differential Scanning Fluorimetry (DSF) study, concentrations of Tandyukisin-1.3, 2.5, 5, and 10 µM-were incubated with 0.05 mg/mL of the EGFR kinase domain. A control sample, containing only 5% DMSO, was used alongside the EGFR kinase domain. The thermal stability of the EGFR kinase domain was assessed using PR NT.48 (NanoTemper). The assay conditions were set to a temperature range of 25°C–95°C with a ramp rate of 1 °C/min.

[9] = system: MCF-7 cells; assay: MTT assay, MCF-7 growth inhibition; format: cell-based, human
Description: Both mediums were enriched with 10% fetal bovine serum and 1% penicillin/streptomycin.
Cells in the exponential growth phase were seeded into 96-well plates and allowed to adhere overnight. […] After 24 h, 20 µL of Methyl-thiazolyldiphenyl-tetrazolium bromide (MTT, 5 mg/mL, Thermo Fisher Scientific) was added to each well and incubated for a minimum of 4 h. Following the incubation, the medium containing the compounds and MTT was removed from each well, and 200 µL of dimethyl sulfoxide (DMSO) was added.
All experiments were repeated at least three times, and the data are presented as mean ± standard deviation (SD). The statistical analyses were performed using Origin. EC50 or IC50 values were obtained by fitting the data to a four-parameter Hill model of the graph of log dose against percentage cell viability or inhibition from at least three sets of experiments. Difference between two groups were analyzed by Student’s t test (two-sided) and significance was set at p < 0.05. The specific details about statistical methods are introduced in respective figure legends.

[10] = molecular target: T2, EGFR extracellular ligand binding domain (Homo sapiens, UniProt P00533); assay: SPR binding (Biacore 8K)
T2 construct: His; purchased Sinobiological, China
T2 sequence (P00533 25-645 limits assumed): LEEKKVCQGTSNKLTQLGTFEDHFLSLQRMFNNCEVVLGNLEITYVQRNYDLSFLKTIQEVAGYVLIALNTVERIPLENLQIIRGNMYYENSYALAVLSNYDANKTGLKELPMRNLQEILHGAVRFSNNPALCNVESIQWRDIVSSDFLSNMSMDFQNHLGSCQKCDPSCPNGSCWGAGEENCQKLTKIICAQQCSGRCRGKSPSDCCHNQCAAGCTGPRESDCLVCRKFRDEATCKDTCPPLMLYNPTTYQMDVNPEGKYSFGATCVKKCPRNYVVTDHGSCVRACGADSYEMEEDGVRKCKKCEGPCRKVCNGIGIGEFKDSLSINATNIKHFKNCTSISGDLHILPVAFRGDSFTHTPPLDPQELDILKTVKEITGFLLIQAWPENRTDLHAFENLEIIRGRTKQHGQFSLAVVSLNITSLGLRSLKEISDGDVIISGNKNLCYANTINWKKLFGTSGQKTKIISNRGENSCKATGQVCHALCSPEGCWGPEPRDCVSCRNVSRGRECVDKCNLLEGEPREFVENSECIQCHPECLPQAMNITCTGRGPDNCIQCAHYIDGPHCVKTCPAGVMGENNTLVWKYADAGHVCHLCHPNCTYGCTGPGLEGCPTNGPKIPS
Source text: The extracellular ligand-binding domain of EGFR, tagged with His, and the intracellular tyrosine kinase (TK) domain of EGFR, tagged with GST, were acquired from Sinobiological, China. Kinase assay systems for both wild-type EGFR and its mutants—T790M, L858R, and the dual L858R/T790M—were procured from Promega Corporation, USA. Cell lines including MCF-7, A549, A431, H1299, HL-60, and MCF-10A were obtained from the China Infrastructure Cell Line Resources.
The binding affinities of compounds towards EGFR extracellular ligand binding domain and EGFR intracellular kinase domain were assayed using the SPR-based Biacore 8K instrument (Cytiva). Considering the purchased EGFR was fused with GST tag, GST alone was also immobilized on the chip to do the binding measurement. All the proteins were respectively immobilized on a CM5 sensor chip by using standard amine-coupling at 25°C with running buffer HEPES-P (20 mM HEPES buffer, […], 0.05% surfactant P20, pH 7.4). A reference channel was only activated and blocked to eliminate compound unspecific binding to the surface of the chip. The immobilization level of EGFR extracellular ligand binding domain, EGFR intracellular kinase domain and GST were all about 10,000 RU. […] Extra wash with 50% DMSO was added to remove the last remaining sample in the pipeline.

[11] = system: A549 cells; assay: MTT assay, A549; format: cell-based, human; details: A549 (high EGFR-expressing), 10 μM
Description: as §1, §2

COC(=O)C/C(C)=C/C(=O)O[C@@H]1C[C@@H](C)[C@H]2[C@@H](C=C[C@H](CC(C)C)[C@]2(C)C(=O)/C=C\O)[C@@H]1O [Tandyukisin]
cell lethality percentage [1]: 60.3% ± 3.9% | IC50 [2]: > 100 µM | IC50 [3]: > 100 µM | IC50 [4]: > 100 µM | IC50 [5]: > 100 µM | IC50 [6]: > 100 µM | IC50 [7]: > 100 µM | melting temperature (Tm) of EGFR kinase domain [8]: 54.2 °C | EC50 ([9]; Homo sapiens, MCF7, MTT, 24 h, read-out: EC50, MCF-7 cell viability): 3 ± 1 µM | cell lethality percentage ([9]; MCF-7, 10 μM): 75.7% ± 2.3% | Kd [10]: 101 µM | kon ([10]; Figure 4C-D, read-out: ka, EGFR ligand binding domain): 109 M⁻¹ s⁻¹ | cell lethality percentage [11]: 72.1% ± 1.8%
